Here are results for one compound from publication PMC8026785, “The pharmacokinetics of [^18F]UCB-H revisited in the healthy non-human primate brain” (EJNMMI Research, 2021).

Series [1] in a line: Plasma free fraction by ultrafiltration. Format: in vitro ADME. To be noted: NHP plasma, before tracer injection. The method, then:
The fraction of [^18F]UCB-H in NHP plasma samples not bound to plasma protein was measured before PET injection using a previously described ultrafiltration method. In brief, standard amounts of [^18F]UCB-H (≈15 kBq) were added to 200 μL plasma that was applied to Microcon® filtration devices containing an YM-10 membrane (Millipore, France). The devices were centrifuged for 10 min at 10,000 g (Sigma 2-16KL, France). [^18F]UCB-H activity concentration in the resulting ultrafiltrate (≈70 μL, CFP) and a sample of plasma (CP) were counted. The free fraction (fp) was calculated as: fp = CFP/CP and measured in triplicates.

Series [2] in a line: Arterial blood sampling and radiometabolite analysis after i.v. [^18F]UCB-H. Format: in vivo, cynomolgus monkeys (Macaca fascicularis). The settings on record: for intact parent fraction: arterial blood. The method, then: All four non-human primates (NHP) underwent a 2-h (2 h) test and retest PET scan; two NHP underwent an additional 4-h (4 h) retest PET scan. Three NHP underwent one 4-h (4 h) displacement PET scan. Arterial blood sampling was performed during test and retest scans with PET imaging spaced by at least 3 weeks between each scan. To this end, the femoral artery opposite to the saphenous vein used for radioligand injection was cannulated. For the 2-h (2 h) scans, we collected in total 28 blood samples of 1 mL: 16 samples during the first 5 min followed by […] every 5 min and […] every 10 min. For the 4 h scans, we collected an additional 6 samples every 20 min during the last two hours (34 samples in total). Larger samples (2 – 3 mL) were collected at 5, 15, 30, 60, 90, 120 min (2 h) and at 180, 240 min (4 h) for metabolite analysis. Displacement of [^18F]UCB-H was done by intravenous (IV) administration 90 min after [^18F]UCB-H injection of a bolus of 30 mg/kg LEV, or of 80 µg/kg (≈250 nmol/kg) or 5 mg/kg (≈15 µmol/kg) of cold [^19F]-UCB-H. Full experimental design of all NHP is outlined in Additional file 1: Table 1.
Plasma was separated from whole-blood by centrifugation (5 min, 2054xg, 4 °C) and 50 µL of plasma and whole-blood were counted using a PET cross-calibrated gamma well counter (WIZARD^2, PerkinElmer, France) to obtain the whole-blood and plasma activity curves. All data were corrected for radioactive decay from the injection time. For the larger blood samples, 500 µL plasma was deproteinized with acetonitrile. The supernatant was injected in high-performance liquid chromatography, equipped with an Atlantis® T3 5 μm 4.6 × 150 mm column (Waters) and an Atlantis® T3 5 μm 3.9 × 5 mm pre-column (Waters), with an LB-513 radioactivity flow detector (Berthold, La Garenne Colombes, France, MX Z100 cell). The eluant was collected in intervals of 15 s (fraction collector III, Waters, France) and counted in the gamma well counter (WIZARD^2, PerkinElmer, France) to measure total activity. [^18F]UCB-H parent fraction was calculated as a percentage of the total radioactivity (metabolites and parent).
For each animal, a 2-exponential decay function was fitted to [^18F]UCB-H parent fraction, which was time multiplied with the plasma activity curve to obtain the metabolite-corrected arterial plasma input function (mcAIF) used for the kinetic modeling.

For the compound `O=C1C[C@H](c2cc(F)c(F)c(F)c2)CN1Cc1ccncc1[18F]` [[^18F]UCB-H], in series [1], the “Plasma free parent fraction (fp)” value was 42.6 ± 1.6%. For the same compound, the intact parent fraction in series [2] (15 min after tracer injection) is 37 ± 3.9%; in series [2] (30 min after tracer injection), 29.5 ± 3.4%; in series [2] (60 min after tracer injection) it was 19 ± 3.5%; in series [2] (120 min after tracer injection) it was 14.6 ± 1.9%; in series [2] (240 min after tracer injection), 4.4 ± 0.7%. Besides, in series [2] (over the entire 120-min acquisition period), the “plasma to whole-blood ratio” value came out at 0.90 ± 0.05.
